Values quoted from earlier work as cited in patent publication US6953790B2, “CGRP receptor antagonists” (Merck & Co., Inc., priority 2003, dated 2005).
No end group written: not given here.

How the values were obtained:
[1] = system: facial blood flow; conditions: marmoset, electrical stimulation of the trigeminal ganglion (Doods et al. 2000)
[2] = target: T1, CGRP receptor (Homo sapiens, UniProt O60894+Q16602); conditions: clinical trials (Olesen et al. 2004)
T1 construct: host or cells: human migraine patients (in vivo)
T1 sequence (Q16602 23-461): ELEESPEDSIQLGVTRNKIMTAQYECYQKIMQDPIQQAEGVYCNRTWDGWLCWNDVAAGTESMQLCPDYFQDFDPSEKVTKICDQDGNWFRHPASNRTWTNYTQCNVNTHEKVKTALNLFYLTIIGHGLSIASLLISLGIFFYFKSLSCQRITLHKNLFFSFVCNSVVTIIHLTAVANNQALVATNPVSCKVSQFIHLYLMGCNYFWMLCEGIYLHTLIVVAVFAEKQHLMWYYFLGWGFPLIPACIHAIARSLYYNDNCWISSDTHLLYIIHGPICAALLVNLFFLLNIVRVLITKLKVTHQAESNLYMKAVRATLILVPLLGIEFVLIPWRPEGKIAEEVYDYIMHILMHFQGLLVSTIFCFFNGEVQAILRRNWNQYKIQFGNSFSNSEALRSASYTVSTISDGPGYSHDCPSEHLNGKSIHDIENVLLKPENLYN
T1 sequence (O60894 27-148): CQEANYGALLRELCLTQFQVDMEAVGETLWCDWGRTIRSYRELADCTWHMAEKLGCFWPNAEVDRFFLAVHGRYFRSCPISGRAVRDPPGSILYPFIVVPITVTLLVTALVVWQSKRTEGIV

[3] = system: middle meningeal artery; conditions: rats, electrical stimulation of the dura mater, prior administration (Williamson et al. 1997)
[4] = system: facial blood flow; conditions: rat, trigeminal ganglion stimulation (Escott et al. 1995)

In the case of `NCCCC[C@H](NC(=O)[C@@H](Cc1cc(Br)c(O)c(Br)c1)NC(=O)N1CCC(N2Cc3ccccc3NC2=O)CC1)C(=O)N1CCN(c2ccncc2)CC1` [BIBN4096BS], the “effect on increase in facial blood flow” value [1] is listed as “blocked” and the “efficacy in acute attacks of migraine” value [2] is listed as “effective in treating acute attacks of migraine”.
In the case of “CGRP(8-37): "a peptide CGRP antagonist" (VTHRLAGLLSRSGGVVKNNFVPTNVGSKAF; ends and bridges not checked; UniProt P06881 90-119, looked up, fragment)”, the “effect on increase in diameter of the middle meningeal artery” value [3] is given as “blocked” and the “effect on increased facial blood flow” value [4] is given as “inhibited”.
